Structures can show the parent of a compound that is named as a salt.

The target in this test is T1, human GPR119 (Homo sapiens, UniProt Q8TDV5).
T1 construct: expressed in transfected cells; host or cells: Flp-In-T-REx 293 (tetracycline-inducible)
T1 sequence (Q8TDV5 1-335): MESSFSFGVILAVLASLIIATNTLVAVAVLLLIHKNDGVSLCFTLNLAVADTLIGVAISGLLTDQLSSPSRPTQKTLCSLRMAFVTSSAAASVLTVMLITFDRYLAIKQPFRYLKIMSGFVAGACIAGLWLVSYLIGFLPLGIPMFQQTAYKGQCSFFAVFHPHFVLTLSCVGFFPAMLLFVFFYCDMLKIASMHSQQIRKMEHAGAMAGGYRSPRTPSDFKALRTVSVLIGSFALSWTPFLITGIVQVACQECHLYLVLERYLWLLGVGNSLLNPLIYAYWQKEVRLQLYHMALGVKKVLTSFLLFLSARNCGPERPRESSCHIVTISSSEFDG
Put plainly: Human Tet-inducible cAMP assay. In kind it is cell-based. The following applies: Flp-In-T-REx 293 tetracycline inducible cells expressing GPR119; cAMP by Hit Hunter cAMP kit; 1 hour at 37° C.; read-out: hGPR119 EC50. The procedure: The in vitro modulation of recombinant human GPR119 was determined as follows.
Human Tet-Inducible cAMP Assay
Cell lines expressing GPR119 are generated using the Flp-In-T-REx 293 tetracycline inducible gene expression system are cultured in culture medium comprising the following components: DMEM#11965, 10% FBS, 2 mM L-glutamine, 200 ug/ml Hygromycin B, and 15 ug/ml blasticidin.
For cAMP assays, cells are plated on 96 well plates (e.g., BD Falcon: REF 353948, black side, clear bottom, TC surface) at a density of about 4.5×10^4 cells per well in growth medium containing 1.0 ug/ml tetracycline (1.0 mg/ml stock). The cells are then incubated for 48 hours at 37° C.
Following the incubation, the growth medium is removed from the wells and the wells rinsed (once) with the assay buffer included in the Hit Hunter cAMP kit (100 μl/well). Following the wash, 20 μl of assay buffer is added to each well, followed by addition of 10 μl of a 3× concentration compound working solution. The solution is then mixed. The final concentration range of compound is from about 10^−5M to about 10^−11M. The reagents are then incubated at 37° C. at 5% CO2 for 1 hour.
The manufacturer's protocol may be followed for cAMP determination. The Hit Hunter cAMP kit protocol is outlined for the HIT-T15 cAMP assays described above.
Compounds of the present invention were tested in the Human Tet-inducible cAMP assay described immediately above and the results shown in Table 1 below were obtained.
As for `CS(=O)(=O)c1ccc(-n2ccc(OC3CCN(S(=O)(=O)C4CC4)CC3)cc2=O)cc1` [Example 84, 4-(1-(cyclopropylsulfonyl)piperidin-4-yloxy)-1-(4-(methylsulfonyl)phenyl)pyridin-2(1H)-one], the EC50 came out at 3270 nM.

Take `CC(C)OC(=O)N1CCC(Oc2ccn(-c3ccc(NC(=O)C(C)C)cc3)c(=O)c2)CC1` [Example 209, isopropyl 4-(1-(4-isobutyramidophenyl)-2-oxo-1,2-dihydropyridin-4-yloxy)piperidine-1-carboxylate]: the EC50 was 3390 nM. In the case of `CCCOC(=O)N1CCC(Oc2ccn(-c3ccc(S(C)(=O)=O)cc3)c(=O)c2)CC1` [Example 91, propyl 4-(1-(4-(methylsulfonyl)phenyl)-2-oxo-1,2-dihydropyridin-4-yloxy)piperidine-1-carboxylate] it was 304 nM; in that of `CS(=O)(=O)c1ccc(-n2ccc(OC3CCN(c4nc5ccccc5o4)CC3)cc2=O)cc1` [Example 51, 4-(1-(benzo[d]oxazol-2-yl)piperidin-4-yloxy)-1-(4-(methylsulfonyl)phenyl)pyridin-2(1H)-one], 314 nM. As to `CC(C)(C)OC(=O)N1CCC(Oc2cc(=O)n(-c3ccc(C#N)c(F)c3)cc2Cl)CC1` [Example 267, tert-butyl 4-(5-chloro-1-(4-cyano-3-fluorophenyl)-2-oxo-1,2-dihydropyridin-4-yloxy)piperidine-1-carboxylate], the EC50 is 4 nM. The same measure for `COc1cccc(-n2ccc(OC3CCN(C(=O)OC(C)C)CC3)cc2=O)c1` [Example 12, isopropyl 4-(1-(3-methoxyphenyl)-2-oxo-1,2-dihydropyridin-4-yloxy)piperidine-1-carboxylate]: 3490 nM; for `CCCc1cnc(N2CCC(Oc3cc(=O)n(-c4ccc(S(C)(=O)=O)c(F)c4)cc3Cl)CC2)nc1` [Example 224, 5-chloro-1-(3-fluoro-4-(methylsulfonyl)phenyl)-4-(1-(5-propylpyrimidin-2-yl)piperidin-4-yloxy)pyridin-2(1H)-one, TFA salt]: 6 nM; for `CC(C)OC(=O)N1[C@@H]2CC[C@@H]1CC(Oc1ccn(-c3ccc(S(C)(=O)=O)cc3)c(=O)c1)C2` (stereo partly drawn) [Example 27, (3-endo)-isopropyl 3-(1-(4-(methylsulfonyl)phenyl)-2-oxo-1,2-dihydropyridin-4-yloxy)-8-azabicyclo[3.2.1]octane-8-carboxylate]: 3500 nM. The same measure for `Cc1cc(OC2CCN(c3ncc(C4CC4)cn3)CC2)cc(=O)n1-c1ccc(S(C)(=O)=O)cc1` [Example 162, 4-(1-(5-cyclopropylpyrimidin-2-yl)piperidin-4-yloxy)-6-methyl-1-(4-(methylsulfonyl)phenyl)pyridin-2(1H)-one]: 5000 nM; for `CS(=O)(=O)c1ccc(-n2ccc(OC3CCN(S(C)(=O)=O)CC3)cc2=O)cc1` [Example 83, 1-(4-(methylsulfonyl)phenyl)-4-(1-(methylsulfonyl)piperidin-4-yloxy)pyridin-2(1H)-one]: 4340 nM. In the case of `N#Cc1ccc(-n2cc(Cl)c(OC3CCN(c4ncc(C5CC5)cn4)CC3)cc2=O)cc1F` [Example 229, 4-(5-chloro-4-(1-(5-cyclopropylpyrimidin-2-yl)piperidin-4-yloxy)-2-oxopyridin-1(2H)-yl)-2-fluorobenzonitrile] it was 4 nM. For `CCCc1cnc(N2CCC(Oc3ccn(-c4ccc(NC(=O)C(C)(C)C)c(F)c4)c(=O)c3)CC2)nc1` [Example 239, N-(2-fluoro-4-(2-oxo-4-(1-(5-propylpyrimidin-2-yl)piperidin-4-yloxy)pyridin-1(2H)-yl)phenyl)pivalamide], the half-maximal effective concentration (EC50) was found to be 9 nM.

For `CC(C)OC(=O)N1CCC(Oc2ccn(-c3cncnc3)c(=O)c2)CC1` [Example 191, isopropyl 4-(2-oxo-1-(pyrimidin-5-yl)-1,2-dihydropyridin-4-yloxy)piperidine-1-carboxylate], the EC50 was 5090 nM. Turning to `CCCc1cnc(N2CCC(Oc3ccn(-c4ccc(C(N)=O)cc4F)c(=O)c3)CC2)nc1` [Example 179, 3-fluoro-4-(2-oxo-4-(1-(5-propylpyrimidin-2-yl)piperidin-4-yloxy)pyridin-1(2H)-yl)benzamide, TFA salt], the EC50 stood at 276 nM.

Take `CCCc1cnc(N2CCC(Oc3ccn(-c4ccc(S(C)(=O)=O)cc4C)c(=O)c3)CC2)nc1` [Example 178, 1-(2-methyl-4-(methylsulfonyl)phenyl)-4-(1-(5-propylpyrimidin-2-yl)piperidin-4-yloxy)pyridin-2(1H)-one]: the EC50 came out at 265 nM. The same measure for `N#Cc1ccc(-n2cc(Cl)c(OC3CCN(c4ncc(C5CC5)cn4)CC3)cc2=O)c(F)c1` [Example 265, 4-(5-chloro-4-(1-(5-cyclopropylpyrimidin-2-yl)piperidin-4-yloxy)-2-oxopyridin-1(2H)-yl)-3-fluorobenzonitrile]: 4 nM. The same measure for `CS(=O)(=O)c1ccc(-n2ccc(OC3CCN(S(=O)(=O)CC(F)(F)F)CC3)cc2=O)cc1` [Example 82, 1-(4-(methylsulfonyl)phenyl)-4-(1-(2,2,2-trifluoroethylsulfonyl)piperidin-4-yloxy)pyridin-2(1H)-one]: 4030 nM; for `CCCc1cnc(N2CCC(Oc3ccn(-c4ccc(C#N)cc4F)c(=O)c3)CC2)nc1` [Example 177, 3-fluoro-4-(2-oxo-4-(1-(5-propylpyrimidin-2-yl)piperidin-4-yloxy)pyridin-1(2H)-yl)benzonitrile, TFA salt]: 8 nM; for `CCCc1cnc(N2CCC(Oc3ccn(-c4cncnc4)c(=O)c3)CC2)nc1` [Example 192, 4-(1-(5-propylpyrimidin-2-yl)piperidin-4-yloxy)-1-(pyrimidin-5-yl)pyridin-2(1H)-one]: 241 nM.

For the compound `CCCc1cnc(N2CCC(Oc3ccn(-c4ccc(S(C)(=O)=O)c(F)c4)c(=O)c3)CC2)nc1` [Example 175, 1-(3-fluoro-4-(methylsulfonyl)phenyl)-4-(1-(5-propylpyrimidin-2-yl)piperidin-4-yloxy)pyridin-2(1H)-one], the EC50 is 8 nM. For `N#Cc1ccc(-n2cc(Cl)c(OC3CCN(c4ncc(CCC(F)(F)F)cn4)CC3)cc2=O)cc1F` [Example 263, 4-(5-chloro-2-oxo-4-(1-(5-(3,3,3-trifluoropropyl)pyrimidin-2-yl)piperidin-4-yloxy)pyridin-1(2H)-yl)-2-fluorobenzonitrile], the EC50 was found to be 4 nM. The same measure for `Cc1nc(S(C)(=O)=O)ccc1-n1ccc(OC2CCN(C(=O)OC(C)C)CC2)cc1=O` [Example 207, isopropyl 4-(1-(2-methyl-6-(methylsulfonyl)pyridin-3-yl)-2-oxo-1,2-dihydropyridin-4-yloxy)piperidine-1-carboxylate, TFA salt]: 7070 nM; for `CCCc1cnc(N2CCCC(Oc3ccn(-c4ccc(S(C)(=O)=O)cc4)c(=O)c3)CC2)nc1` (stereo not shown) [Example 261, 1-(4-(methylsulfonyl)phenyl)-4-(1-(5-propylpyrimidin-2-yl)azepan-4-yloxy)pyridin-2(1H)-one]: 257 nM; for `CCOc1ccc(OC(=O)N2CCC(Oc3ccn(-c4ccc(S(C)(=O)=O)cc4)c(=O)c3)CC2)cc1` [Example 125, 4-ethoxyphenyl 4-(1-(4-(methylsulfonyl)phenyl)-2-oxo-1,2-dihydropyridin-4-yloxy)piperidine-1-carboxylate]: 293 nM.

For `CCCc1cnc(N2CCC(Oc3cc(C)n(-c4ccc(S(C)(=O)=O)cc4)c(=O)c3)CC2)nc1` [Example 165, 6-methyl-1-(4-(methylsulfonyl)phenyl)-4-(1-(5-propylpyrimidin-2-yl)piperidin-4-yloxy)pyridin-2(1H)-one], the EC50 was 5000 nM.

`CS(=O)(=O)c1ccc(-n2ccc(OC3CCN(S(=O)(=O)c4ccccn4)CC3)cc2=O)cc1` [Example 86, 1-(4-(methylsulfonyl)phenyl)-4-(1-(pyridin-2-ylsulfonyl)piperidin-4-yloxy)pyridin-2(1H)-one]: the EC50 came out at 3520 nM. The same measure for `CCCc1ccc(OC(=O)N2CCC(Oc3ccn(-c4ccc(S(C)(=O)=O)cc4)c(=O)c3)CC2)cn1` [Example 153, 6-propylpyridin-3-yl 4-(1-(4-(methylsulfonyl)phenyl)-2-oxo-1,2-dihydropyridin-4-yloxy)piperidine-1-carboxylate, TFA salt]: 273 nM; for `CS(=O)(=O)c1ccc(-n2ccc(OC3CCN(c4ncc(C5CCC5)cn4)CC3)cc2=O)c(F)c1` [Example 243, 4-(1-(5-cyclobutylpyrimidin-2-yl)piperidin-4-yloxy)-1-(2-fluoro-4-(methylsulfonyl)phenyl)pyridin-2(1H)-one]: 9 nM.

Values taken from patent publication US8003796B2, “Pyridone GPR119 G protein-coupled receptor agonists” (Bristol-Myers Squibb Company, priority 2007, dated 2011).
